{"source": "patent US20240255464A1", "about": "(priority 2021, published 2024)", "test_system": "HL-1 cells", "type": "cell-based", "key": {"[1]": {"conditions": "HL-1 cells, 100 nM nifedipine in Tyrode's solution, 60 s"}, "[2]": {"conditions": "HL-1 cells, 100 nM nifedipine in Tyrode's solution, 120 s"}}, "note": "Values joined by “and” are separate entries in the source; they are usually repeats but may differ in a detail not shown here. Equal values may be shown once. Read-outs that look alike come from different tables or passages of the source."}
{"smiles": "COC(=O)C1=C(C)NC(C)=C(C(=O)OC)C1c1ccccc1[N+](=O)[O-]", "note": "[Nifedipine, nifedipine]", "values": [{"measurement": "APD50", "setting": "[1]", "result": 106.0, "unit": "ms"}, {"measurement": "APD90", "setting": "[1]", "result": 172.9, "unit": "ms"}, {"measurement": "Amplitude", "setting": "[1]", "result": 102.9, "unit": "mV"}, {"measurement": "Refractory Period", "setting": "[1]", "result": 964.8, "unit": "ms"}, {"measurement": "APD50", "setting": "[2]", "result": 59.1, "unit": "ms"}, {"measurement": "APD90", "setting": "[2]", "result": 90.1, "unit": "ms"}, {"measurement": "Amplitude", "setting": "[2]", "result": 88.9, "unit": "mV"}, {"measurement": "Refractory Period", "setting": "[2]", "result": 1022.3, "unit": "ms"}]}
{"smiles": "NC1=N[C@H](O)[C@H]2[C@H]3O[C@]4(O)O[C@@H]([C@@H](O)[C@@]2(N1)[C@@H]4O)[C@]3(O)CO", "note": "[TTX, tetrodotoxin]", "values": [{"measurement": "APD50", "result": "81.2 ms and 65.5 ms"}, {"measurement": "APD90", "result": "166.6 ms and 141.8 ms"}, {"measurement": "Amplitude", "result": "113.4 mV and 91.9 mV"}, {"measurement": "Refractory Period", "result": "948.4 ms and 958.6 ms"}, {"measurement": "effect on action potential amplitude", "result": "lowers the amplitude"}, {"measurement": "effect on action potential duration at 50% or 90% repolarization", "result": "reduces the action potential duration"}, {"measurement": "effect on repolarization duration", "result": "shortening the repolarization duration"}, {"measurement": "effect on spike amplitude", "result": "reducing the spike amplitude"}, {"measurement": "reversibility of the effect", "result": "reversible"}]}
